Measurements: patent publication US20070258926A1, “Composition containing retinoic acid nanoparticles coated with inorganic salt of polyvalent metal” (LTT BIO-PHARMA CO., LTD., priority 2003, published 2007)

System: hyaluronic acid
Details: topical application, mice
Description: The dorsal skin of mice (ddy strain/5 week old/male) was clipped with electric clippers and a Vaseline based retinoic acid preparation (containing 0.1% retinoic acid) was applied to the clipped area 10 mg/cm^2 per day for 4 consecutive days.

Question: `CC1=C(/C=C/C(C)=C/C=C/C(C)=C/C(=O)O)C(C)(C)CCC1` [retinoic acid, all-trans retinoic acid] was tested. Which “colloidal iron staining of basal cells and prickle cells of the epithelium (production of hyaluronic acid)” value did it give?
Answer: less significant
